Key:
Type in all cases: physicochemical
[1] = Free thiol quantitation in HCCF by disulfide mapping mass spectrometry; conditions: 2 mM cystine, 2 week hold, versus starting material
Procedure: The amount of free thiol in harvested cell culture fluid was determined by matching predicted masses of disulfide-linked peptides to observed masses from non-reducing Lys-C peptide mapping. Briefly, the sample was denatured and diluted prior to digestion with a serine protease. Following protease digestion, half of each reaction mixture was reduced by the addition of DTT. The digests were separated by RP-HPLC using a C18 column and analyzed using a UV-detector and an on-line mass spectrometer. Disulfide-bond linked peptides are only present in non-reducing runs and will disappear under reducing conditions.

[2] = Antibody reduction potential assay (Vacuum/GX); conditions: EDTA 9.5, 19, 38 mM or Cystine 4 and 8 mM
Procedure: Bioreactor samples (1 mL) were obtained daily and centrifuged at 3000-4000 RPM and the supernatant was frozen immediately at −80° C. On the day prior to the assay, the samples were removed from −80° C. storage, thawed, and placed in a vacuum chamber at room temperature overnight to induce reduction of the monoclonal antibody without the interference of oxygen. After the vacuum hold, the samples were analyzed for protein fragmentation under non-reducing conditions using a BioAnalyzer system (Agilent Technologies) or a LABCHIP® GXII system (PerkinElmer) to detect antibody fragments resulting from the breakage of the antibody's interchain disulfide bonds. […]
Samples were stored frozen until analyzed. […] After being denatured and the free thiols being capped by NEM, the samples were analyzed using a Perkin Elmer Labchip® GXII (Perkin Elmer, Waltham, Mass.) to perform size fractionation and quantification. Using the Labchip® GXII, the protein and fragments were detected by laser-induced fluorescence and translated into gel-like images (bands) and electropherograms (peaks).
Reduction potential, i.e. the potential of the molecule to be reduced under anaerobic condition, was measured by subjecting samples to vacuum analysis as described above followed addition of non-reducing sample buffer. […]

[3] = Antibody aggregation analysis (HP-SEC); conditions: EDTA 9.5, 19, 38 mM or Cystine 4 and 8 mM
Procedure: The percent of antibody aggregates was determined using standard size exclusion chromatography (HP-SEC) methods. An Agilent 1200 series system was used with a Tosoh Bioscience TSKgel G3000SW XL column (Tosoh Bioscience LLC, King of Prussia, Pa.) (7.8 mm×300 mm) at 1 mL/min flow rate using a mobile phase buffer of 0.1 M sodium phosphate, 0.1 M sodium sulfate, pH 6.8. The absorbance chromatography at 280 nm was used to quantify the results.

[4] = Non-reduced GX (NR-GX) analysis of HCCF and purification products; conditions: 2 weeks at 2° C.-8° C., bags without headspace
Procedure: Samples were stored frozen until analyzed. Once thawed, 400-600 μL of each sample was transferred to culture tubes and mixed in non-reducing sample buffer containing N-Ethylmaleimide (NEM). After being denatured and the free thiols being capped by NEM, the samples were analyzed using a Perkin Elmer Labchip® GXII (Perkin Elmer, Waltham, Mass.) to perform size fractionation and quantification. Using the Labchip® GXII, the protein and fragments were detected by laser-induced fluorescence and translated into gel-like images (bands) and electropherograms (peaks).
The high levels of impurities were first detected in the capture product and were carried through the subsequent steps in the process.

inter-chain free thiol in HCCF by the end of the hold [1]: higher level of inter-chain free thiol | reduction potential at the time of harvest of sheared mAb E material [2]: no reduction potential | aggregation of sheared mAb E material after 8 days at 2-8° C. [3]: limited the extent of mAb aggregation | reduction of mAb B in HCCF by the end of the hold (NR-GX) ([4]; 2 mM cystine): reduction had set in | reduction of mAb B in HCCF by the end of the hold (NR-GX) ([4]; 4 mM cystine): no signs of reduction
Compound: N[C@@H](CSSC[C@H](N)C(=O)O)C(=O)O [cystine, L-cystine]
